# Measurements taken from the supplement of paper PMC13380429.
# Assays:
# Conditions in all cases: 72 h
# Caco-2 [1] = experiment: relative viability EC50 (midpoint between 100% and the lowest measured viability); higher = less toxic
# Calu-3 [2] = experiment: as above
# HepG2 [3] = experiment: as above
# U2OS [4] = experiment: as above
# Vero E6 [5] = experiment: as above
# Caco-2 [6] = experiment: cell viability relative to DMSO; higher = less toxic
# Calu-3 [7] = experiment: as above
# HepG2 [8] = experiment: as above
# U2OS [9] = experiment: as above
# Vero E6 [10] = experiment: as above
# Caco-2 [11] = experiment: drug sensitivity score (DSS) for viability; higher = more toxic; extreme values may be limits of the assay
# Calu-3 [12] = experiment: as above
# HepG2 [13] = experiment: as above
# U2OS [14] = experiment: as above
# Vero E6 [15] = experiment: as above
smiles,measurement,setting,value
O=C1OC(OC(=O)c2cccnc2Nc2cccc(C(F)(F)F)c2)c2ccccc21 (stereo not given) [talniflumate],relative viability EC50,Caco-2 [1],> 10 µM
same,relative viability EC50,Calu-3 [2],> 10 µM
same,relative viability EC50,HepG2 [3],> 10 µM
same,relative viability EC50,U2OS [4],> 10 µM
same,relative viability EC50,Vero E6 [5],> 10 µM
same,cell viability,Caco-2 [6]; 1 nM,95.4%
same,cell viability,Caco-2 [6]; 10 nM,96.9%
same,cell viability,Caco-2 [6]; 100 nM,99.5%
same,cell viability,Caco-2 [6]; 1000 nM,102%
same,cell viability,Caco-2 [6]; 10000 nM,104%
same,cell viability,Calu-3 [7]; 1 nM,90.9%
same,cell viability,Calu-3 [7]; 10 nM,100%
same,cell viability,Calu-3 [7]; 100 nM,95%
same,cell viability,Calu-3 [7]; 1000 nM,99.1%
same,cell viability,Calu-3 [7]; 10000 nM,101%
same,cell viability,HepG2 [8]; 1 nM,96.3%
same,cell viability,HepG2 [8]; 10 nM,89.6%
same,cell viability,HepG2 [8]; 100 nM,104%
same,cell viability,HepG2 [8]; 1000 nM,96.7%
same,cell viability,HepG2 [8]; 10000 nM,104%
same,cell viability,U2OS [9]; 1 nM,97.1%
same,cell viability,U2OS [9]; 10 nM,101%
same,cell viability,U2OS [9]; 100 nM,98.9%
same,cell viability,U2OS [9]; 1000 nM,102%
same,cell viability,U2OS [9]; 10000 nM,103%
same,cell viability,Vero E6 [10]; 1 nM,99%
same,cell viability,Vero E6 [10]; 10 nM,97.6%
same,cell viability,Vero E6 [10]; 100 nM,96.8%
same,cell viability,Vero E6 [10]; 1000 nM,91%
same,cell viability,Vero E6 [10]; 10000 nM,95.3%
same,drug sensitivity score,Caco-2 [11],0
same,drug sensitivity score,Calu-3 [12],0
same,drug sensitivity score,HepG2 [13],0
same,drug sensitivity score,U2OS [14],0
same,drug sensitivity score,Vero E6 [15],0
OB1OCc2cc(F)ccc21 [tavaborole],relative viability EC50,Caco-2 [1],> 10 µM
same,relative viability EC50,Calu-3 [2],> 10 µM
same,relative viability EC50,HepG2 [3],> 10 µM
same,relative viability EC50,U2OS [4],> 10 µM
same,relative viability EC50,Vero E6 [5],> 10 µM
same,cell viability,Caco-2 [6]; 1 nM,95.6%
same,cell viability,Caco-2 [6]; 10 nM,87.4%
same,cell viability,Caco-2 [6]; 100 nM,91.7%
same,cell viability,Caco-2 [6]; 1000 nM,88.3%
same,cell viability,Caco-2 [6]; 10000 nM,97.3%
same,cell viability,Calu-3 [7]; 1 nM,101%
same,cell viability,Calu-3 [7]; 10 nM,105%
same,cell viability,Calu-3 [7]; 100 nM,96.4%
same,cell viability,Calu-3 [7]; 1000 nM,104%
same,cell viability,Calu-3 [7]; 10000 nM,105%
same,cell viability,HepG2 [8]; 1 nM,92.9%
same,cell viability,HepG2 [8]; 10 nM,105%
same,cell viability,HepG2 [8]; 100 nM,103%
same,cell viability,HepG2 [8]; 1000 nM,102%
same,cell viability,HepG2 [8]; 10000 nM,105%
same,cell viability,U2OS [9]; 1 nM,99.2%
same,cell viability,U2OS [9]; 10 nM,97.3%
same,cell viability,U2OS [9]; 100 nM,100%
same,cell viability,U2OS [9]; 1000 nM,97.2%
same,cell viability,U2OS [9]; 10000 nM,102%
same,cell viability,Vero E6 [10]; 1 nM,94.6%
same,cell viability,Vero E6 [10]; 10 nM,96%
same,cell viability,Vero E6 [10]; 100 nM,87.7%
same,cell viability,Vero E6 [10]; 1000 nM,92%
same,cell viability,Vero E6 [10]; 10000 nM,112%
same,drug sensitivity score,Caco-2 [11],0
same,drug sensitivity score,Calu-3 [12],0
same,drug sensitivity score,HepG2 [13],0
same,drug sensitivity score,U2OS [14],0
same,drug sensitivity score,Vero E6 [15],0
Fc1ccccc1-c1nc2ccn(Cc3ccc(-c4ccc(C(F)(F)F)cc4C(F)(F)F)nn3)cc-2n1 [tegobuvir],relative viability EC50,Caco-2 [1],> 10 µM
same,relative viability EC50,Calu-3 [2],> 10 µM
same,relative viability EC50,HepG2 [3],> 10 µM
same,relative viability EC50,U2OS [4],> 10 µM
same,relative viability EC50,Vero E6 [5],> 10 µM
same,cell viability,Caco-2 [6]; 1 nM,101%
same,cell viability,Caco-2 [6]; 10 nM,97.8%
same,cell viability,Caco-2 [6]; 100 nM,95%
same,cell viability,Caco-2 [6]; 1000 nM,99.2%
same,cell viability,Caco-2 [6]; 10000 nM,97.1%
same,cell viability,Calu-3 [7]; 1 nM,98.2%
same,cell viability,Calu-3 [7]; 10 nM,93.9%
same,cell viability,Calu-3 [7]; 100 nM,104%
same,cell viability,Calu-3 [7]; 1000 nM,90.3%
same,cell viability,Calu-3 [7]; 10000 nM,104%
same,cell viability,HepG2 [8]; 1 nM,103%
same,cell viability,HepG2 [8]; 10 nM,97.3%
same,cell viability,HepG2 [8]; 100 nM,103%
same,cell viability,HepG2 [8]; 1000 nM,87.6%
same,cell viability,HepG2 [8]; 10000 nM,81.6%
same,cell viability,U2OS [9]; 1 nM,101%
same,cell viability,U2OS [9]; 10 nM,102%
same,cell viability,U2OS [9]; 100 nM,97.2%
same,cell viability,U2OS [9]; 1000 nM,102%
same,cell viability,U2OS [9]; 10000 nM,100%
same,cell viability,Vero E6 [10]; 1 nM,103%
same,cell viability,Vero E6 [10]; 10 nM,101%
same,cell viability,Vero E6 [10]; 100 nM,100%
same,cell viability,Vero E6 [10]; 1000 nM,96.1%
same,cell viability,Vero E6 [10]; 10000 nM,98.9%
same,drug sensitivity score,Caco-2 [11],0
same,drug sensitivity score,Calu-3 [12],0
same,drug sensitivity score,HepG2 [13],1.6
same,drug sensitivity score,U2OS [14],0
same,drug sensitivity score,Vero E6 [15],0
CC(C)(CO)c1cc2cc(NC(=O)C3(c4ccc5c(c4)OC(F)(F)O5)CC3)c(F)cc2n1C[C@@H](O)CO [tezacaftor],relative viability EC50,Caco-2 [1],> 10 µM
same,relative viability EC50,Calu-3 [2],> 10 µM
same,relative viability EC50,HepG2 [3],> 10 µM
same,relative viability EC50,U2OS [4],> 10 µM
same,relative viability EC50,Vero E6 [5],> 10 µM
same,cell viability,Caco-2 [6]; 1 nM,101%
same,cell viability,Caco-2 [6]; 10 nM,98.1%
same,cell viability,Caco-2 [6]; 100 nM,96.3%
same,cell viability,Caco-2 [6]; 1000 nM,89.1%
same,cell viability,Caco-2 [6]; 10000 nM,98.8%
same,cell viability,Calu-3 [7]; 1 nM,101%
same,cell viability,Calu-3 [7]; 10 nM,96.8%
same,cell viability,Calu-3 [7]; 100 nM,104%
same,cell viability,Calu-3 [7]; 1000 nM,104%
same,cell viability,Calu-3 [7]; 10000 nM,106%
same,cell viability,HepG2 [8]; 1 nM,113%
same,cell viability,HepG2 [8]; 10 nM,102%
same,cell viability,HepG2 [8]; 100 nM,94.1%
same,cell viability,HepG2 [8]; 1000 nM,97.2%
same,cell viability,HepG2 [8]; 10000 nM,96.3%
same,cell viability,U2OS [9]; 1 nM,99.2%
same,cell viability,U2OS [9]; 10 nM,96.7%
same,cell viability,U2OS [9]; 100 nM,101%
same,cell viability,U2OS [9]; 1000 nM,97.7%
same,cell viability,U2OS [9]; 10000 nM,93.2%
same,cell viability,Vero E6 [10]; 1 nM,90.3%
same,cell viability,Vero E6 [10]; 10 nM,98.2%
same,cell viability,Vero E6 [10]; 100 nM,92.4%
same,cell viability,Vero E6 [10]; 1000 nM,94.6%
same,cell viability,Vero E6 [10]; 10000 nM,93.1%
same,drug sensitivity score,Caco-2 [11],0
same,drug sensitivity score,Calu-3 [12],0
same,drug sensitivity score,HepG2 [13],0
same,drug sensitivity score,U2OS [14],0
same,drug sensitivity score,Vero E6 [15],0
Cc1ncc(C[n+]2csc(CCOP(=O)(O)OP(=O)(O)O)c2C)c(N)n1 [thiamine-pyrophosphate],relative viability EC50,Caco-2 [1],> 10 µM
same,relative viability EC50,Calu-3 [2],> 10 µM
same,relative viability EC50,HepG2 [3],> 10 µM
same,relative viability EC50,U2OS [4],> 10 µM
same,relative viability EC50,Vero E6 [5],> 10 µM
same,cell viability,Caco-2 [6]; 1 nM,95.4%
same,cell viability,Caco-2 [6]; 10 nM,88.1%
same,cell viability,Caco-2 [6]; 100 nM,106%
same,cell viability,Caco-2 [6]; 1000 nM,95.5%
same,cell viability,Caco-2 [6]; 10000 nM,104%
same,cell viability,Calu-3 [7]; 1 nM,98.5%
same,cell viability,Calu-3 [7]; 10 nM,98%
same,cell viability,Calu-3 [7]; 100 nM,104%
same,cell viability,Calu-3 [7]; 1000 nM,94%
same,cell viability,Calu-3 [7]; 10000 nM,103%
same,cell viability,HepG2 [8]; 1 nM,95.7%
same,cell viability,HepG2 [8]; 10 nM,112%
same,cell viability,HepG2 [8]; 100 nM,97.4%
same,cell viability,HepG2 [8]; 1000 nM,110%
same,cell viability,HepG2 [8]; 10000 nM,134%
same,cell viability,U2OS [9]; 1 nM,95.7%
same,cell viability,U2OS [9]; 10 nM,95.1%
same,cell viability,U2OS [9]; 100 nM,104%
same,cell viability,U2OS [9]; 1000 nM,95.9%
same,cell viability,U2OS [9]; 10000 nM,98.2%
same,cell viability,Vero E6 [10]; 1 nM,91.8%
same,cell viability,Vero E6 [10]; 10 nM,101%
same,cell viability,Vero E6 [10]; 100 nM,92.6%
same,cell viability,Vero E6 [10]; 1000 nM,96.1%
same,cell viability,Vero E6 [10]; 10000 nM,110%
same,drug sensitivity score,Caco-2 [11],0
same,drug sensitivity score,Calu-3 [12],0
same,drug sensitivity score,HepG2 [13],0
same,drug sensitivity score,U2OS [14],0
same,drug sensitivity score,Vero E6 [15],0
CC(C)(C)NC[C@H](O)COc1nsnc1N1CCOCC1 [timolol],relative viability EC50,Caco-2 [1],> 10 µM
same,relative viability EC50,Calu-3 [2],> 10 µM
same,relative viability EC50,HepG2 [3],> 10 µM
same,relative viability EC50,U2OS [4],> 10 µM
same,relative viability EC50,Vero E6 [5],> 10 µM
same,cell viability,Caco-2 [6]; 1 nM,98.1%
same,cell viability,Caco-2 [6]; 10 nM,102%
same,cell viability,Caco-2 [6]; 100 nM,97%
same,cell viability,Caco-2 [6]; 1000 nM,96.9%
same,cell viability,Caco-2 [6]; 10000 nM,113%
same,cell viability,Calu-3 [7]; 1 nM,99.8%
same,cell viability,Calu-3 [7]; 10 nM,94.5%
same,cell viability,Calu-3 [7]; 100 nM,101%
same,cell viability,Calu-3 [7]; 1000 nM,100%
same,cell viability,Calu-3 [7]; 10000 nM,98.1%
same,cell viability,HepG2 [8]; 1 nM,94.9%
same,cell viability,HepG2 [8]; 10 nM,90%
same,cell viability,HepG2 [8]; 100 nM,97.1%
same,cell viability,HepG2 [8]; 1000 nM,96.5%
same,cell viability,HepG2 [8]; 10000 nM,94.5%
same,cell viability,U2OS [9]; 1 nM,96.6%
same,cell viability,U2OS [9]; 10 nM,102%
same,cell viability,U2OS [9]; 100 nM,94.4%
same,cell viability,U2OS [9]; 1000 nM,95.3%
same,cell viability,U2OS [9]; 10000 nM,96.9%
same,cell viability,Vero E6 [10]; 1 nM,94.5%
same,cell viability,Vero E6 [10]; 10 nM,96.9%
same,cell viability,Vero E6 [10]; 100 nM,106%
same,cell viability,Vero E6 [10]; 1000 nM,99.3%
same,cell viability,Vero E6 [10]; 10000 nM,104%
same,drug sensitivity score,Caco-2 [11],0
same,drug sensitivity score,Calu-3 [12],0
same,drug sensitivity score,HepG2 [13],0
same,drug sensitivity score,U2OS [14],0
same,drug sensitivity score,Vero E6 [15],0
